Data reported in article PMC10265916, “Elraglusib (formerly 9-ING-41) possesses potent anti-lymphoma properties which cannot be attributed to GSK3 inhibition” (Cell Communication and Signaling : CCS, 2023).

Columns and labels:
Type in all cases: biochemical
GSK3β = target: T1, GSK3β (Homo sapiens, UniProt P49841); assay: in vitro GSK3β kinase assay (IC50) and […] cell-free kinase screen
T1 construct: gene GSK3B

[1] = target: PIM3 (proto-oncogene serine/threonine-protein kinase 3) (Homo sapiens, UniProt Q86V86); assay: […] cell-free kinase screen, […] inhibition at […]
[2] = target: PIM1 (proto-oncogene serine/threonine-protein kinase 1) (Homo sapiens, UniProt P11309); assay: […] cell-free kinase screen, […] inhibition at […]
[3] = target: T2, MST2 (serine/threonine-protein kinase 3, STK3) (Homo sapiens, UniProt Q13188); assay: […] cell-free kinase screen, […] inhibition at […]
T2 sequence (Q13188 1-491): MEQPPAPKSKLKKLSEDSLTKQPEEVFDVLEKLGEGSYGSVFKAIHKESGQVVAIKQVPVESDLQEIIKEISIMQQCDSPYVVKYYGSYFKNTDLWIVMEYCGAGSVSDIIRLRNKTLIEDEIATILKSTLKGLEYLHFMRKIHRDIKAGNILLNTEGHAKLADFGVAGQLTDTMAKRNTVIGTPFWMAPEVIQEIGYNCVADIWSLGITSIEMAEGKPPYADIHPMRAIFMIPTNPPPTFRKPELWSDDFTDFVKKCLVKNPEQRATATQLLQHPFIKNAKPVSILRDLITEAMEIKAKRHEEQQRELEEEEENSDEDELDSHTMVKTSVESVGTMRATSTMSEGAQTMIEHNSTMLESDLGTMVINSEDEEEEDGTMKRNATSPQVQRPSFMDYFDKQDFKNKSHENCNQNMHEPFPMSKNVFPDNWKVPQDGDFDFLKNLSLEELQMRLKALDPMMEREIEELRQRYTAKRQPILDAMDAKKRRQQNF

T1 sequence (P49841 whole entry): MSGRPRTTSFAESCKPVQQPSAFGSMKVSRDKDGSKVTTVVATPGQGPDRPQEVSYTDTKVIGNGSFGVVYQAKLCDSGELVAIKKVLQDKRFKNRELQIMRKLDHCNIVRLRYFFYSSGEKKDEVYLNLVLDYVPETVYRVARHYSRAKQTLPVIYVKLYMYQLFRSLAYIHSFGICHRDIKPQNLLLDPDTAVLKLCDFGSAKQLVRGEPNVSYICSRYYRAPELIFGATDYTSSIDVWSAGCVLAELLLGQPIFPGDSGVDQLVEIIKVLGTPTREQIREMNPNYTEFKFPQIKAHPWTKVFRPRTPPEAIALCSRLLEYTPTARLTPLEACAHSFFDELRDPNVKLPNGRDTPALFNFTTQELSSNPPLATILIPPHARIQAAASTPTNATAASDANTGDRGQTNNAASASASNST
Sequence of PIM1 (proto-oncogene serine/threonine-protein kinase 1) (P11309 whole entry): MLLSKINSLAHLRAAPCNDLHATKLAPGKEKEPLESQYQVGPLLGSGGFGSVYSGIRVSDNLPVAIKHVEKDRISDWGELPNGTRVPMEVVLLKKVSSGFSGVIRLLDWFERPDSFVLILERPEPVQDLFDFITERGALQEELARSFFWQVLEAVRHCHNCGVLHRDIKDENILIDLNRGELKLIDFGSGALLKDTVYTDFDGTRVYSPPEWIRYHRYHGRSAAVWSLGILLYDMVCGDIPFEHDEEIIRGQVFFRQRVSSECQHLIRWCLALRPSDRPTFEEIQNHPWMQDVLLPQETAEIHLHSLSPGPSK

What does the source list for Cn1cc(C2=C(c3coc4ccc(F)cc34)C(=O)NC2=O)c2cc3c(cc21)OCO3 [elraglusib]?
IC50 (GSK3β): 370 nM; inhibition at 5 µM [1]: > 50%; inhibition at 5 µM [2]: > 50%; inhibition at 5 µM [3]: > 50%
